Test results reported in patent US11753445B2, “Therapeutic peptides” (COHBAR, INC., priority 2016, dated 2023).
Peptide text beside a SMILES is read from it.

Assays:
3T3-L1 Adipocytes = test: Free fatty acid levels in cultured mouse 3T3-L1 adipocytes, isoproterenol stimulated (Example 2); type: cell-based; details: test peptides 25 μM; isoproterenol 1 nM
In short: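 Release of free fatty acids, read at 540 nm, was stimulated with 1 nM isoproterenol for 3 h in mouse 3T3-L1 adipocytes (12–17 days of differentiation). Cells were pre-exposed to 25 μM peptide for 18–20 h plus 1 h, with peptide kept in during stimulation. Values are background-subtracted and normalised to isoproterenol alone.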

[1] = system: Diet Induced Obese (DIO) mice; test: Body weight, blood glucose and fat mass in Diet Induced Obese mice, 10 days (Example 6); type: in vivo, Male C57BL/6 mice; details: male DIO mice; 10 days twice daily intraperitoneal 15 mg/kg; N = 8; mean
Procedure: Animals were randomized to treatment groups based on blood glucose levels and body weight. The peptides of the invention were administered to two groups of male DIG mice once or twice daily by subcutaneous or intraperitoneal injection at a dose of 15 mg/kg/dose for 10 days (N=8 animals per treatment group). An additional group of male DIG mice (n=8) received vehicle (water or saline) alone. Body weight, blood glucose levels and food intake were monitored. Body mass distribution (fat vs lean) was determined by quantitative whole body NMR prior to dosing and at the end of dosing.

[2] = Stability in mouse plasma, peptides 10 uM (Example 15); type: in vitro ADME; details: mouse plasma 37° C., peptide 10 uM; for remaining at 0.25 h, 10 uM / remaining at 0.5 h, 10 uM / remaining at 1 h, 10 uM / remaining at 2 h, 10 uM / remaining at 3 h, 10 uM: pooled mouse plasma; for remaining at 0.25 h, 10 uM: 15 min, read-out: % Remaining at Each Time Point: 15 min; for remaining at 0.5 h, 10 uM: 30 min, read-out: % Remaining at Each Time Point: 30 min; for remaining at 1 h, 10 uM: 60 min, read-out: % Remaining at Each Time Point: 60 min; for remaining at 2 h, 10 uM: 120 min, read-out: % Remaining at Each Time Point: 120 min; for remaining at 3 h, 10 uM: 180 min, read-out: % Remaining at Each Time Point: 180 min
Procedure: (§1) Peptides (10 uM) were incubated in pooled mouse plasma at 37° C. and samples were removed and immediately analyzed for the concentration of intact peptide by LC/MS/MS over the course of 3 hours. The percent of peptide remaining in plasma at each time point was calculated relative to the initial peak area (Table 13).

[3] = Stability in mouse plasma, peptides 100 uM (Example 14); type: in vitro ADME; details: mouse plasma 37° C., peptide 100 uM; for remaining at 0.25 h, 100 uM / remaining at 0.5 h, 100 uM / remaining at 1 h, 100 uM / remaining at 2 h, 100 uM / remaining at 3 h, 100 uM: pooled mouse plasma; for remaining at 0.25 h, 100 uM: 15 min, read-out: % Remaining at Each Time Point: 15 min; for remaining at 0.5 h, 100 uM: 30 min, read-out: % Remaining at Each Time Point: 30 min; for remaining at 1 h, 100 uM: 60 min, read-out: % Remaining at Each Time Point: 60 min; for remaining at 2 h, 100 uM: 120 min, read-out: % Remaining at Each Time Point: 120 min; for remaining at 3 h, 100 uM: 180 min, read-out: % Remaining at Each Time Point: 180 min
Procedure: as §1, with “(100” for “(10”, “12).” for “13).”

| % Remaining at Each Time Point: 0 min [2] | remaining at 0.25 h, 10 uM [2] | remaining at 0.5 h, 10 uM [2] | remaining at 1 h, 10 uM [2] | remaining at 2 h, 10 uM [2] | remaining at 3 h, 10 uM [2] | % Remaining at Each Time Point: 0 min [3] | remaining at 0.25 h, 100 uM [3] | remaining at 0.5 h, 100 uM [3] | remaining at 1 h, 100 uM [3] | remaining at 2 h, 100 uM [3] | remaining at 3 h, 100 uM [3] | Molecule | Free Fatty Acid Levels in 3T3-L1 Adipocytes Expressed as a Percent of Isoproterenol Control: Percent of Control Value (3T3-L1 Adipocytes) | Difference from Vehicle Control: Decrease from Baseline in Blood Glucose [1] | Difference from Vehicle Control: Decrease from Baseline in Body Weight (%) [1] | Difference from Vehicle Control: Decrease from Baseline in Fat Mass [1] |
| --- | --- | --- | --- | --- | --- | --- | --- | --- | --- | --- | --- | --- | --- | --- | --- | --- |
| 100% | 59.3% | 36.1% | 11.1% | 0.98% | 0.28% | – | – | – | – | – | – | CC[C@H](C)[C@H](NC(=O)[C@H](Cc1ccc(O)cc1)NC(=O)CNC(=O)[C@H](CCSC)NC(=O)[C@H](CCC(=O)O)NC(=O)[C@H](CCC(N)=O)NC(=O)[C@H](Cc1c[nH]c2ccccc12)NC(=O)[C@H](CCCNC(=N)N)NC(=O)[C@@H](N)CCSC)C(=O)N[C@@H](Cc1ccccc1)C(=O)N[C@@H](Cc1ccc(O)cc1)C(=O)N1CCC[C@H]1C(=O)N[C@@H](CCCNC(=N)N)C(=O)N[C@H](C)C(=O)N[C@@H](CC(C)C)C(=O)N[C@@H](CCCNC(=N)N)C(=O)O [compound 149] (HELM PEPTIDE1{M.R.W.Q.E.M.G.Y.I.F.Y.P.R.[dA].L.R}$$$$V2.0) | 38.6% | -11.4 mg/dL | −5.22% | -2.13 g |
| – | – | – | – | – | – | 100% | 69.1% | 65.8% | 59.1% | 43.3% | 29.1% | Ac-MRWQEMGYIFYPR-NH2 [compound 61] | 92.9% | – | – | – |
| – | – | – | – | – | – | 100% | 17.5% | 19.3% | 21.4% | 10.9% | 6.89% | H-ARWQEMGYIFYPRKLR-OH [compound 6] | 58.6% | – | – | – |
| 100% | 98.8% | 96.8% | 89.5% | 84.3% | 80.7% | – | – | – | – | – | – | H-ERWQEAGYIAYPR-OH [compound 241] | 50.9% | -7.00 mg/dL | −1.49% | -0.34 g |
| 100% | 59.4% | 33.6% | 6.43% | 0.44% | 0% | – | – | – | – | – | – | H-MRWQEEGYIFYPRKLR-OH [compound 172] | 54.2% | -31.5 mg/dL | −2.48% | -0.77 g |
| – | – | – | – | – | – | 100% | 19.5% | 18.8% | 21.8% | 6.63% | 0% | H-MRWQEMGYIAYPRKLR-OH [compound 15] | 67.9% | – | – | – |
| 100% | 46% | 26.8% | 11.9% | 11.3% | 7.35% | – | – | – | – | – | – | H-MRWQEMGYIFYARKLR-OH [compound 17] | – | -2.63 mg/dL | −2.87% | -0.65 g |
| 100% | 75.3% | 60.1% | 41.1% | 22.1% | 13.7% | – | – | – | – | – | – | H-WQEMNYIFYPR-OH [compound 284] | 97.1% | – | – | – |
